Data set [1] deals with K562 cells with wild-type UMPS. In words: K562 xenograft model, bioluminescence imaging. The settings on record: UTA supplemented food (same with normal food). Format: in vivo, NSG mice. The text has this:
(§1) For the K562 xenograft assay, 6 to 12 weeks old male NOD SCID gamma mouse (NSG) mice were transplanted with 1×10^6 K562 cells resuspended in […]® protein mixture (Corning, Inc.) 1:1 diluted with PBS under anesthesia. All animals were kept and handled according to institutional guidelines and the experimental protocol was approved by Stanford University's Administrative Panel on Laboratory Animal Care.
(§2) The previously engineered UMPSK^KO/KO K562 cell line expressing firefly luciferase (FLuc) was used in a xenograft model in NSG mice. […] Cas9 RNP is targeted to exon 1 of the HBB locus with a guide RNA and a DNA donor template transduced by rAAV6 which carries a FLuc-2A-GFP-polyA cassette under control of the SFFV promoter. FACS analysis was performed four days after targeting of K562 cells to evaluate GFP expression before sorting of the GFP+ population. In a control group administered the AAV only, 1.61% of the cells were GFP+, and […]. […]
(§3) UMPSK^KO/KO K562 cells or control cells were transplanted subcutaneously and observed weekly with bioluminescence imaging. Luminescence imaging of K562 cells was performed 5 minutes after intraperitoneal (ip) injection of 125 mg/kg D-Luciferin (PerkinElmer) on an IVIS Spectrum imaging system (PerkinElmer). […]

Another data set relates to UMPS^KO/KO K562 cells. The data set is described as follows: K562 xenograft model, bioluminescence imaging. Format: in vivo, NSG mice. The settings on record: mice fed with 8% UTA.
Text: as §1, §2, §3

The conditions of data set [2]: cited from earlier work.

With `CC(=O)OC[C@H]1O[C@@H](n2ccc(=O)[nH]c2=O)[C@H](OC(C)=O)[C@@H]1OC(C)=O` [UTA, uridine triacetate], the “Tumor burden of UMPS wild-type K562 cells” value in data set [1] is “increase in tumor burden”. The “Luminescence of UMPS^KO/KO K562-derived tumors” value in the data set on UMPS^KO/KO K562 cells is “increased”. For the same compound, the “Increase of uridine serum levels” value in data set [2] (humans and mouse models, administration as prodrug) is reported as “greater than 10 fold”. Further, the Tolerability entry in data set [2] (mice, food enriched with 8% (w/w) UTA) is on record as “well tolerated”.

(Values after US20220290103A1, “METHODS AND COMPOSITIONS USING AUXOTROPHIC REGULATABLE CELLS” (AUXOLYTIC LTD, priority 2019, published 2022).)
